Several values for one entry are separate records, joined by “and”; a condition that tells them apart may be missing. Identical values can stand only once. Entries after “also recorded” stand apart in the source; their conditions may differ.
What was measured:
fibroblast cell cultures = assay: Example 27: cellular uptake in fibroblast cell cultures, intracellular PLP content; assay type: cell-based
Experimental: Fibroblast cell cultures were cultivated in the usual manner in a medium containing different concentrations of various B6 vitamers, and the intracellular […] content was determined.
When the extracellular PL concentration was 60 nM, intracellular PLP levels reached a concentration of 12 nmol/g cell protein. […] Moreover, when both PN and PL were included in the medium, intracellular PLP accumulation was decreased in comparison with PLP accumulation seen when PL alone (in equimolecular concentrations)was included in the medium.

albumin = conditions: plasma; cited from earlier work
[1] = experimental animals or humans; cited from earlier work
lipid metabolism = conditions: experimental animals; German patent application P37 05 549.6; cited from earlier work
[2] = Plasma PLP increment in critically ill patients on hyperalimentation and additional PN / alleviation of B6 depletion; assay type: in vivo
From the text: A direct inverse correlation exists between the degree of B6 depletion of critically ill patients and their chances of survival. Medical and surgical complication such as shock, hepatic failure, infection and sepsis, wound dehiscence, incisional hernia, aminoglycoside induced renal failure and impaired skin and mucosal regeneration, hematopoiesis, hormone production and wound repair; multi-organ dysfunction, respiratory distress and also severe depression are substantially more frequent in B6 deficient patients. These conditions are, inter alia, causally related to impairment of immune function, collagen and elastin cross-linking and polyamine synthesis and accumulation. […] However, the correctness or otherwise of any explanations given or mechanisms postulated is not to limit the scope of the invention or to be relevant to the inventive merits of the invention as claimed.

[3] = test system: E. Coli induced septic shock; assay: Protective effect in experimentally induced septic shock; assay type: in vivo, rats
Experimental: An E. Coli suspension was prepared and serially diluted to the point where an injection of 0.3 ml caused approximately 80% mortality in rats after 12 h. This solution was used as the challenging solution in the following experiment:
Two groups of 6 male rats each were used. The animals were carefully selected so that the average mass in both groups was 210 g (191-219 g in the control group; 194-224 g in the experimental group). A solution containing 43.8 mg/ml of pyridoxal was prepared for i/v and i/p injection. 0.8 ml of this solution afforded 1.0 m mol/kg of PL when injected into a 210 g rat.
At time 0 h, the control group received 0.3 ml saline and the experimental group 0.3 ml of the PL solution. After 1 h all animals in both groups were challenged with 0.3 ml i/v of the E. Coli suspension. Immediately thereafter, the control group received 0.5 ml saline and the experimental group 0.5 ml of the PL solution i/p.
Each entry represents 1 animal, 12 h denoting that the particular animal survived for the full observation period of 12 h. Other entries denote mortalities at the times indicated, e.g. 2 h inspection (all animals were inspected at 1 h intervals and mortalities counted).

Babesia canis [4] = assay: Example 4: clinical trials on dogs with B. canis infection; assay type: in vivo
Experimental: Babesia canis infection, better known as "biliary fever", is a severe and frequently fatal disease in dogs. It is a protozoal disease involving large-scale destruction of erythrocytes (red blood cells) and loss of haemoglobin. Double blind trials were carried out on two groups of dogs presented to the clinic for treatment of severe B. canis infections. Upon admission, all animals were recumbent with fever, jaundice, and accelerated heart and respiratory rate. All animals were given standard treatment, which consisted of post surgical drip, doxycycline, trypan blue, hepavet, electrolytes and glucose. In the experimental group, a solution of PL was added to the drip (electrolytes, glucose) given to the animals. In the control group, saline was given to replace the PL solution.
The PL solution according to the invention was made up as follows (per vial):
Experimental animals: PL solution according to the invention was given with the drip in such a manner that each patient received 50mg of pyridoxal over a 12 h period. Each animal received only one such course of treatment.
These received saline instead of PL solution under similar conditions. Control animals were selected to resemble experimental animals as closely as possible in respect of race and initial haemoglobin concentration.
**E: denotes experimental animals C: denotes controls, E: denotes changes
per day during the period between the first two series of measurements of
the parameters listed. Normally these represent measurements obtained
immediately after admission (or 1 day later) and again 2 to 4 days later
after treatment has been started.
***Average changes for six animals in each group over the two periods of […]

[5] = compared with PN; cited from earlier work
[6] = test system: anemia / haemoglobin formation; assay: Treatment of anemias; assay type: in vivo, patients; conditions: cases where conventional therapy is ineffective, pyridoxine refractory anaemias
[7] = test system: estrogen side effects (tryptophane metabolism); assay: Counteracting side effects of elevated estrogen (PMS, OC users); assay type: in vivo, patients
PN-oxidase deficiency = assay: Response of patients with reduced PN-oxidase activity; assay type: in vivo
Babesia canis [8] = assay: Example 4: further clinical trials on dogs with B-canis infection; assay type: in vivo
From the text: The experiment was repeated with 13 dogs (10 inbred beagles and 3 other mongrels) randomly divided into an experimental and a control group. All animals were infected with Babesia canis by injection of blood from a splenectomised donor dog which led to the development of acute Babesiosis in approximately 3-5 days. All dogs were monitored twice daily until the haematocrit values fell to 0.15 l/l when treatment was started which in the case of all animals consisted of the following:
Electrolytes solution (number 2) for the first […], thereafter Post-Surgisol. Both fluids were administered by means of an intravenous jugular catheter at a rate of 80 ml/kg/24h.
Trypan blue (1%) 1 ml/kg intravenous once only. Berenil 3.5 mg/kg intramuscularly 7 days after the Trypan blue. Heparin, 25 IU/kg subcutaneously three times per day for the first 2 days.
Experimental animals, in addition, received pyridoxal in their infusions at a concentration of 50 mg/l for the entire duration of fluid therapy.
Before the start of treatment, a urine dipstick and sediment examination were performed as well as a complete clinical evaluation and faecal flotation to determine the presence of helminth ova.
Assessment: Temperature pulse and respiration were measured every 6 hours during the first 3 days and a subjective assessment of habitus (grade 1-4) and appetite (1-4) was also made at the same time.
Full haematological and biochemical assessment was performed daily.
Serum alkaline phosphatase determinations were made on days 1 and 3.
Additional trial parameters and measurements consisted of Astrup determinations (before treatment and again 24 hours later) and a ten day survival rate.
Samples for haematology were drawn in evacuated EDTA tubes and for serum chemistries into plain evacuated tubes (cephalic vein).
Plasma PLP and PL as well as RBC-PLP and PL values were determined by means of a HPLC procedure routinely used for human studies.

[9] = test system: PLP-phosphatases in red blood cells; assay: Inhibition of PLP-specific phosphatases of red blood cells; assay type: biochemical
[10] = test system: PNP-oxidase in bone marrow aspirate; assay: Conversion of pyridoxine by bone marrow aspirate (PNP-oxidase activity); assay type: cell-based; conditions: immature cells
Experimental: To confirm the inability of immature cells to convert pyridoxine into pyridoxal and its phosphate, an aspirate of bone marrow was tested.

[11] = test system: glutamate-pyruvate-transaminase (GPT); assay: RBC GPT-activity before and after daily oral PN supplementation; assay type: in vivo, human; conditions: RBC GPT-activity at day 0 and day 28, daily oral PN (10 mg)
From the text: The enzyme glutamate-pyruvate-transaminase (GPT) is a PLP dependent enzyme present in RBC which can be used to assess the utilisation of PN by RBC. In the population, individuals may be divided into 3 different groups corresponding to 3 polymorphic forms of the enzyme (1-1, 25%; 1-2, 50%; 2-2, 25%.

[12] = test system: estrogen side effects (tryptophane metabolism); conditions: cited from earlier work
[13] = man; cited from earlier work
[14] = test system: anemia / haemoglobin formation; conditions: 50-200 mg PN/day, one case 600 mg/day; Merrill and Henderson; cited from earlier work
[15] = average change for six experimental animals
[16] = change per day, individual animal, 50 mg pyridoxal over 12 h with drip
[17] = change per day, total of experimental group
[18] = patients destined to die, hyperalimentation and additional PN, even with 200mg/day

Cc1ncc(COP(=O)(O)O)c(C=O)c1O [PLP, pyridoxal phosphate]
accumulation of extracellular PLP by the cells (fibroblast cell cultures): not accumulated by the cells | radioactivity in the intracellular fraction (fibroblast cell cultures; incubation with radioactive PLP): very little radioactivity | protein (albumin) binding compared with PL (albumin): substantially more prone to becoming protein (albumin) bound than PL

Cc1ncc(CO)c(C=O)c1O [PL, pyridoxal]
intracellular PLP level (fibroblast cell cultures; extracellular PL concentration 60 nM): 12 nmol/g cell protein | intracellular PLP level, maximum value (fibroblast cell cultures; extracellular PL concentration 600 nM): 120 nmol/g cell protein | cellular uptake (fibroblast cell cultures; further increase of extracellular concentration): saturable process | effect of extracellular vitamer on intracellular PLP level (fibroblast cell cultures; relative effectiveness of PL and PN): more effective than PN | adverse effects [1]: No adverse effects | lipid lowering effect (lipid metabolism): unexpectedly strong lipid lowering effects | effectiveness to counteract B6 depletion ([2]; compared with PN, also patients who do not respond to PN): substantially more effective than PN | difference in survival rate ([3]; PL-supplemented vs control, 12 h): statistically significant difference in survival rate | survival time ([3]; individual rat, 0.3 ml i/v 1 h before and 0.5 ml i/p after challenge, 12h = survived full period): 1 h and 3 h (3×) and 12 h (2×) | Hb change, average (Babesia canis [4]; [15]): 11.7 g/L | MCHC change, average (Babesia canis [4]; [15]): -0.03 g/dlRC | MCV change, average (Babesia canis [4]; [15]): 0.17 fL | RCC change, average (Babesia canis [4]; [15]): 4.4e+11 L⁻¹ | WCC change, average (Babesia canis [4]; [15]): 4.52e+09 L⁻¹ | Hb (haemoglobin) change (Babesia canis [4]; [16]): 11.0 g/L and 12.8 g/L and 6.5 g/L and 9.5 g/L and 7.8 g/L and 24.8 g/L | MCHC (mean corpuscular haemoglobin content) change (Babesia canis [4]; [16]): 3.8 g/dlRC and -1 g/dlRC and -2.5 g/dlRC and -1.7 g/dlRC and -0.5 g/dlRC and 2.5 g/dlRC | MCV (mean corpuscular volume) change (Babesia canis [4]; [16]): -6 fL and 2 fL and 0 fL and 3 fL and 1 fL | RCC (red cell count) change (Babesia canis [4]; [16]): 4.1e+11 L⁻¹ and 4.9e+11 L⁻¹ and 4.7e+11 L⁻¹ and 2.3e+11 L⁻¹ and 6.4e+11 L⁻¹ | WCC (white cell count) change (Babesia canis [4]; [16]): 3e+09 L⁻¹ and -8.4e+09 L⁻¹ and 2.5e+09 L⁻¹ and 3.1e+09 L⁻¹ and 1.05e+09 L⁻¹ and 1.79e+10 L⁻¹ | Hb change, total (Babesia canis [4]; [17]): 70 g/L | MCHC change, total (Babesia canis [4]; [17]): -8.2 g/dlRC | MCV change, total (Babesia canis [4]; [17]): 1 fL | RCC change, total (Babesia canis [4]; [17]): 2.65e+12 L⁻¹ | WCC change, total (Babesia canis [4]; [17]): 2.715e+10 L⁻¹ | recovery of haemoglobin levels (Babesia canis [4]; experimental animals): amazing recovery of haemoglobin levels | haematological differences to control group (haemoglobin, RCC, WCC) (Babesia canis [4]; experimental vs control): Large, significant differences | in vitro stability [5]: far less stable | stimulation of haemoglobin formation [6]: capable of stimulating the formation of haemoglobulin | effectiveness / effective dosage rate against side effects of estrogen ([7]; supplementation, particularly over prolonged periods, compared with pyridoxine): effective at dosage rates as low as a few mg/day; also recorded: far more effective | response compared with PN (PN-oxidase deficiency): respond much more satisfactorily | mean corpuscular hemoglobin (Babesia canis [8]; day 5, experimental animals): statistically significantly increased | mean corpuscular volume (Babesia canis [8]; day 5, experimental animals): statistically significantly increased | clinical improvement (Babesia canis [8]; experimental group): definite clinical improvement | deaths (Babesia canis [8]; experimental group, 50 mg/l in infusions, two died in control group): none | reticulocyte count response (Babesia canis [8]; experimental vs control): responded quicker | normablast count profile (Babesia canis [8]; first 3 days, continuous downward trend in controls): inverse trend | alkaline phosphatase values (Babesia canis [8]; serum, day 1 to day 3, decreased in controls): large increase

NCCCNCCCCNCCCN [spermine]
inhibition of PLP-specific phosphatases [9]: inhibited

Cc1ncc(CO)c(CO)c1O [PN, pyridoxine]
rate of increase of intracellular PLP level (fibroblast cell cultures; PN vs PL as extracellular source): increased much more slowly (and in a time dependent manner) | effect of high concentrations on intracellular PLP accumulation (fibroblast cell cultures; high concentrations of PN with PL): suppress intracellular PLP accumulation | conversion of pyridoxine into pyridoxal and its phosphate [10]: incapable of converting PN into PLP or PL | conversion of pyridoxine into pyridoxal and its phosphate ([10]; listed as pyridoxine): incapable of converting pyridoxine into pyridoxal | lipid lowering effect (lipid metabolism): only a weak lipid-lowering and regulating agent | increment in plasma PLP, generally [2, 18]: less than 10 nM | increment in plasma PLP, occasionally [2, 18]: less than 1 nM | slow responders among persons studied [11]: Approximately 20% | dosage necessary for effect in PMS / estrogen side effects ([12]; bolus doses, daily): 200 to 400 mg/day | effect on Tryp. metabolism and associated clinical symptoms ([12]; oral, OC users): repeatedly shown to normalise Tryp. metabolism | plasma half-life [13]: about 12 minutes | response rate in pyridoxine-responsive anemias [14]: fewer than half of the cases | side effects at high bolus dosage ([7]; high dosage levels (e.g. 200-400 mg daily)): produces side effects

NCCCCNCCCN [spermidine]
inhibition of PLP-specific phosphatases [9]: inhibited

Cc1ncc(CO)c(CN)c1O [PM, pyridoxamine]
response compared with PN (PN-oxidase deficiency): respond much more satisfactorily

Source: US5254572A, “Method and composition for supplementing vitamin B6 where the PN-PLP pathway is disturbed” (priority 1989, dated 1993)
